ChEMBL document CHEMBL1909046, “DrugMatrix in vitro pharmacology data”

Biological target: T1, Alpha-2A adrenergic receptor (Homo sapiens, UniProt P08913); further: in other assays of this panel Not Active means under 50% inhibition at 10 µM
T1 sequence (P08913 whole entry): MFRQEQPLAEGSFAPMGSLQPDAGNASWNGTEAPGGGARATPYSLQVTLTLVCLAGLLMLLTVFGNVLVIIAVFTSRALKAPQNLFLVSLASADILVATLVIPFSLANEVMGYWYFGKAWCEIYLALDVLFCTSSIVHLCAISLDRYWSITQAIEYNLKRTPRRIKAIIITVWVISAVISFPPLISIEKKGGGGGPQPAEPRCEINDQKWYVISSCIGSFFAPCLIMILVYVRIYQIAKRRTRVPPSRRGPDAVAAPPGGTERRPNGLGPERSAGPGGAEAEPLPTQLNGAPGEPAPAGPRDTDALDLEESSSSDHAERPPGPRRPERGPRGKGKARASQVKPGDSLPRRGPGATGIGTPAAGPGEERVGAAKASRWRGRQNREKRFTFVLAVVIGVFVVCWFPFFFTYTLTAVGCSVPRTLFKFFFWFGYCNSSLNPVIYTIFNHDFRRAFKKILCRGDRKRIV
Type: cell membranes, Sf9, Membrane
Conditions: sf9

SMILES | IC50
O=C(O)P(=O)(O)O [FOSCARNET] | Not Active
Cc1ccc(C)c(OCCCC(C)(C)C(=O)O)c1 [GEMFIBROZIL] | Not Active
CCC1=C(C)CN(C(=O)NCCc2ccc(S(=O)(=O)NC(=O)N[C@H]3CC[C@H](C)CC3)cc2)C1=O [GLIMEPIRIDE] | Not Active
Nc1cc(-c2ccncc2)c[nH]c1=O [INAMRINONE] | Not Active
CCCCC1=NC2(CCCC2)C(=O)N1Cc1ccc(-c2ccccc2-c2nnn[nH]2)cc1 [IRBESARTAN] | Not Active
C[N+](C)(C)C[C@H](O)CC(=O)[O-] [LEVOCARNITINE] | Not Active
C[C@H]1COc2c(N3CCN(C)CC3)c(F)cc3c(=O)c(C(=O)O)cn1c23.C[C@H]1COc2c(N3CCN(C)CC3)c(F)cc3c(=O)c(C(=O)O)cn1c23.O [LEVOFLOXACIN] | Not Active
CCn1cc(C(=O)O)c(=O)c2cc(F)c(N3CCNC(C)C3)c(F)c21 (stereo unspecified) [LOMEFLOXACIN] | Not Active

Biological target: Beta-1 adrenergic receptor (Homo sapiens, UniProt P08588)
Sequence (P08588 whole entry): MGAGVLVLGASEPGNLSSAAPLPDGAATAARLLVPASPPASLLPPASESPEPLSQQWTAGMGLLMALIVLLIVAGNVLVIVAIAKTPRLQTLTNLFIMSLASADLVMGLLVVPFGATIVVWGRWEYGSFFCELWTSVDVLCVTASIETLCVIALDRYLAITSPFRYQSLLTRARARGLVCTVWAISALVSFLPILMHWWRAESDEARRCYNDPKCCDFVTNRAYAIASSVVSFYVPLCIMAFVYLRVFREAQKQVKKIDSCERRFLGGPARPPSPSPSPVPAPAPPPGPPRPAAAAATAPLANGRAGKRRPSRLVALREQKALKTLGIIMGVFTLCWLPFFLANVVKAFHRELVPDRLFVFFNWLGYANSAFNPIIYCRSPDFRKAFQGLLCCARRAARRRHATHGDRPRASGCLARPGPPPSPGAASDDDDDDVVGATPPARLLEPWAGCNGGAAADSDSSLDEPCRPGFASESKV
Experiment: DRUGMATRIX: Adrenergic beta1 radioligand binding (ligand: [125I] Cyanopindolol)
Type: cell membranes, CHO-K1, Membrane
Conditions: cho-k1; Not Active = under 50% inhibition at 10 µM

SMILES | IC50
O=C(O)P(=O)(O)O [FOSCARNET] | Not Active
Cc1ccc(C)c(OCCCC(C)(C)C(=O)O)c1 [GEMFIBROZIL] | Not Active
CCC1=C(C)CN(C(=O)NCCc2ccc(S(=O)(=O)NC(=O)N[C@H]3CC[C@H](C)CC3)cc2)C1=O [GLIMEPIRIDE] | Not Active
Nc1cc(-c2ccncc2)c[nH]c1=O [INAMRINONE] | Not Active
CCCCC1=NC2(CCCC2)C(=O)N1Cc1ccc(-c2ccccc2-c2nnn[nH]2)cc1 [IRBESARTAN] | Not Active
C[N+](C)(C)C[C@H](O)CC(=O)[O-] [LEVOCARNITINE] | Not Active
C[C@H]1COc2c(N3CCN(C)CC3)c(F)cc3c(=O)c(C(=O)O)cn1c23.C[C@H]1COc2c(N3CCN(C)CC3)c(F)cc3c(=O)c(C(=O)O)cn1c23.O [LEVOFLOXACIN] | Not Active
CCn1cc(C(=O)O)c(=O)c2cc(F)c(N3CCNC(C)C3)c(F)c21 (stereo unspecified) [LOMEFLOXACIN] | Not Active

Biological target: C-C chemokine receptor type 2 (Homo sapiens, UniProt P41597); further: in other assays of this panel Not Active means under 50% inhibition at 10 µM
Sequence (P41597 whole entry): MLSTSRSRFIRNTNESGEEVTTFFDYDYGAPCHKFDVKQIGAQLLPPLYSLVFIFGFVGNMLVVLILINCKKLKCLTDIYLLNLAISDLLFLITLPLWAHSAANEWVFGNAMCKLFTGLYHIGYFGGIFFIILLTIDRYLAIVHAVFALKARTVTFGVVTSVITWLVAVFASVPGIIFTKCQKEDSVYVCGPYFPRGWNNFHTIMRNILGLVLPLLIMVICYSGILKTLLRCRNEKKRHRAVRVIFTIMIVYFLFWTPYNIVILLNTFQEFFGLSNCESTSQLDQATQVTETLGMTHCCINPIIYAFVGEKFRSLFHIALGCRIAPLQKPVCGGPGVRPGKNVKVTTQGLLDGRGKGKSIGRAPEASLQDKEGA
Type: cell membranes, Membrane
Conditions: cho-k1

SMILES | IC50
O=C(O)P(=O)(O)O [FOSCARNET] | Not Active
Cc1ccc(C)c(OCCCC(C)(C)C(=O)O)c1 [GEMFIBROZIL] | Not Active
CCC1=C(C)CN(C(=O)NCCc2ccc(S(=O)(=O)NC(=O)N[C@H]3CC[C@H](C)CC3)cc2)C1=O [GLIMEPIRIDE] | Not Active
Nc1cc(-c2ccncc2)c[nH]c1=O [INAMRINONE] | Not Active
CCCCC1=NC2(CCCC2)C(=O)N1Cc1ccc(-c2ccccc2-c2nnn[nH]2)cc1 [IRBESARTAN] | Not Active
C[N+](C)(C)C[C@H](O)CC(=O)[O-] [LEVOCARNITINE] | Not Active
C[C@H]1COc2c(N3CCN(C)CC3)c(F)cc3c(=O)c(C(=O)O)cn1c23.C[C@H]1COc2c(N3CCN(C)CC3)c(F)cc3c(=O)c(C(=O)O)cn1c23.O [LEVOFLOXACIN] | Not Active
CCn1cc(C(=O)O)c(=O)c2cc(F)c(N3CCNC(C)C3)c(F)c21 (stereo unspecified) [LOMEFLOXACIN] | Not Active

Biological target: T2, Muscarinic acetylcholine receptor M5 (Homo sapiens, UniProt P08912); further: in other assays of this panel Not Active means under 50% inhibition at 10 µM
T2 sequence (P08912 whole entry): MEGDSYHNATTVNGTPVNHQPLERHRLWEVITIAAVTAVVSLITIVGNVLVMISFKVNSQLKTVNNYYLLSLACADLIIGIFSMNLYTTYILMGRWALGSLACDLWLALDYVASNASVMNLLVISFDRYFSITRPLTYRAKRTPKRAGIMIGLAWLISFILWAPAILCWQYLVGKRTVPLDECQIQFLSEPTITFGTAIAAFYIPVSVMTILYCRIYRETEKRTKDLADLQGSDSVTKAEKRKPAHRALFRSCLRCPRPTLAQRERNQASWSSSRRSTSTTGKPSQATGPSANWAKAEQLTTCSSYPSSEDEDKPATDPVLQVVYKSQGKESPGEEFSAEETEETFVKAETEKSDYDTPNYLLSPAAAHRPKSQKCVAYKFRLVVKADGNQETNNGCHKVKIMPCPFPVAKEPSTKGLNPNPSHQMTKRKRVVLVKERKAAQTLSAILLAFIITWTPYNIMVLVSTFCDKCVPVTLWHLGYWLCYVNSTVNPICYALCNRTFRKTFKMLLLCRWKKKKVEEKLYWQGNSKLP
Type: cell membranes, CHO-K1, Membrane
Conditions: cho-k1

SMILES | IC50
O=C(O)P(=O)(O)O [FOSCARNET] | Not Active
Cc1ccc(C)c(OCCCC(C)(C)C(=O)O)c1 [GEMFIBROZIL] | Not Active
CCC1=C(C)CN(C(=O)NCCc2ccc(S(=O)(=O)NC(=O)N[C@H]3CC[C@H](C)CC3)cc2)C1=O [GLIMEPIRIDE] | Not Active
Nc1cc(-c2ccncc2)c[nH]c1=O [INAMRINONE] | Not Active
CCCCC1=NC2(CCCC2)C(=O)N1Cc1ccc(-c2ccccc2-c2nnn[nH]2)cc1 [IRBESARTAN] | Not Active
C[N+](C)(C)C[C@H](O)CC(=O)[O-] [LEVOCARNITINE] | Not Active
C[C@H]1COc2c(N3CCN(C)CC3)c(F)cc3c(=O)c(C(=O)O)cn1c23.C[C@H]1COc2c(N3CCN(C)CC3)c(F)cc3c(=O)c(C(=O)O)cn1c23.O [LEVOFLOXACIN] | Not Active
CCn1cc(C(=O)O)c(=O)c2cc(F)c(N3CCNC(C)C3)c(F)c21 (stereo unspecified) [LOMEFLOXACIN] | Not Active

Biological target: Epidermal growth factor receptor (Homo sapiens, UniProt P00533)
Sequence (P00533 whole entry): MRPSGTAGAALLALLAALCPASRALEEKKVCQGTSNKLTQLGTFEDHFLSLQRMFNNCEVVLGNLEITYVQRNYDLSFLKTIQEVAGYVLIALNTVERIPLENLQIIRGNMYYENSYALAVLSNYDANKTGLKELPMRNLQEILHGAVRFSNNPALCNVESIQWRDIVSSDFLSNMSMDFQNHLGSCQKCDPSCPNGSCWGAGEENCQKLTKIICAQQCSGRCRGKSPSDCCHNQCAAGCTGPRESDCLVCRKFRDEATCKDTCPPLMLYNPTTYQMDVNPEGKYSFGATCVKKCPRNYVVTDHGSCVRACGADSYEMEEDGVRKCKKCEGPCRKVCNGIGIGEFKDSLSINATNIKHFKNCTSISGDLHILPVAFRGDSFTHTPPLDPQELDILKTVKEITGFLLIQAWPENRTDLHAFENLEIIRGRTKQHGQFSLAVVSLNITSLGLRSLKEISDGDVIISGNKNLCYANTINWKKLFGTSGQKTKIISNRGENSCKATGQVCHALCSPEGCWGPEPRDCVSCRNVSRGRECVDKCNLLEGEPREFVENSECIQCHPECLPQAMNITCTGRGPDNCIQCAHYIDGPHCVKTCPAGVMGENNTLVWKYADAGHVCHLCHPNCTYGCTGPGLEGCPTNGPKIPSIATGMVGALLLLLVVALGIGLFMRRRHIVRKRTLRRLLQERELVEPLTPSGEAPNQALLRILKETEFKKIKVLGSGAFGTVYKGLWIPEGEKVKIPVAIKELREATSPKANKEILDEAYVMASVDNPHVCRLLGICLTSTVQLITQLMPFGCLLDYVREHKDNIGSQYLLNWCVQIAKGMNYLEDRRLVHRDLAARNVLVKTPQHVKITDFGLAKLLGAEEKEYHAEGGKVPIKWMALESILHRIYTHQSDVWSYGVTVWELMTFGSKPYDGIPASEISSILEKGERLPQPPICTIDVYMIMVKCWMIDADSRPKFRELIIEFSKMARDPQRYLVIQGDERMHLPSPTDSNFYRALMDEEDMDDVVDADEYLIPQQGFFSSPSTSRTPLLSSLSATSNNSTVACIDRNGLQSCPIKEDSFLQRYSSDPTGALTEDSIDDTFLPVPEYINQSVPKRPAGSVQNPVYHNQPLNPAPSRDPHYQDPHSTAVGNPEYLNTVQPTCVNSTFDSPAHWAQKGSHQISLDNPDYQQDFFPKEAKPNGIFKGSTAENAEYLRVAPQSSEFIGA
Experiment: DRUGMATRIX: Protein Tyrosine Kinase, EGF Receptor enzyme inhibition (substrate: Poly(Glu:Tyr))
Type: cell-based, Insect cells
Conditions: insect cells; Not Active = under 50% inhibition at 10 µM

SMILES | IC50
O=C(O)P(=O)(O)O [FOSCARNET] | Not Active
Cc1ccc(C)c(OCCCC(C)(C)C(=O)O)c1 [GEMFIBROZIL] | Not Active
CCC1=C(C)CN(C(=O)NCCc2ccc(S(=O)(=O)NC(=O)N[C@H]3CC[C@H](C)CC3)cc2)C1=O [GLIMEPIRIDE] | Not Active
Nc1cc(-c2ccncc2)c[nH]c1=O [INAMRINONE] | Not Active
CCCCC1=NC2(CCCC2)C(=O)N1Cc1ccc(-c2ccccc2-c2nnn[nH]2)cc1 [IRBESARTAN] | Not Active
C[N+](C)(C)C[C@H](O)CC(=O)[O-] [LEVOCARNITINE] | Not Active
C[C@H]1COc2c(N3CCN(C)CC3)c(F)cc3c(=O)c(C(=O)O)cn1c23.C[C@H]1COc2c(N3CCN(C)CC3)c(F)cc3c(=O)c(C(=O)O)cn1c23.O [LEVOFLOXACIN] | Not Active
CCn1cc(C(=O)O)c(=O)c2cc(F)c(N3CCNC(C)C3)c(F)c21 (stereo unspecified) [LOMEFLOXACIN] | Not Active

Biological target: Cytochrome P450 2C19 (Homo sapiens, UniProt P33261); further: in other assays of this panel Not Active means under 50% inhibition at 10 µM
Sequence (P33261 whole entry): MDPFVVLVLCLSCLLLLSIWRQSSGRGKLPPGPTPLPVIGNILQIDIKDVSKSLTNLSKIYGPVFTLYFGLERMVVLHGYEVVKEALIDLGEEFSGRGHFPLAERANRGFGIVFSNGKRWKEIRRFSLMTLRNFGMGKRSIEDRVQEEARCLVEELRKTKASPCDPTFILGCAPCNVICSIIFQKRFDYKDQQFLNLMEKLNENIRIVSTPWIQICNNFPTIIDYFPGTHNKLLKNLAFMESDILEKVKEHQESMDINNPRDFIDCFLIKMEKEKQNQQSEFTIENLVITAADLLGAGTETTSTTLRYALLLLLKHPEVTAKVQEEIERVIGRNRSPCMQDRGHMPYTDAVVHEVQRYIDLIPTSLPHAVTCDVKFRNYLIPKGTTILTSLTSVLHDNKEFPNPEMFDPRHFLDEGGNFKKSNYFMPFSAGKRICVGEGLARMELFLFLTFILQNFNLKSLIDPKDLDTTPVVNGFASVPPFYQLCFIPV
Conditions: bti-tn-5b1-4

SMILES | IC50 | Ki
O=C(O)P(=O)(O)O [FOSCARNET] | Not Active | Not Active
Cc1ccc(C)c(OCCCC(C)(C)C(=O)O)c1 [GEMFIBROZIL] | Not Active | Not Active
CCC1=C(C)CN(C(=O)NCCc2ccc(S(=O)(=O)NC(=O)N[C@H]3CC[C@H](C)CC3)cc2)C1=O [GLIMEPIRIDE] | Not Active | Not Active
Nc1cc(-c2ccncc2)c[nH]c1=O [INAMRINONE] | Not Active | Not Active
CCCCC1=NC2(CCCC2)C(=O)N1Cc1ccc(-c2ccccc2-c2nnn[nH]2)cc1 [IRBESARTAN] | Not Active | Not Active
C[N+](C)(C)C[C@H](O)CC(=O)[O-] [LEVOCARNITINE] | Not Active | Not Active
C[C@H]1COc2c(N3CCN(C)CC3)c(F)cc3c(=O)c(C(=O)O)cn1c23.C[C@H]1COc2c(N3CCN(C)CC3)c(F)cc3c(=O)c(C(=O)O)cn1c23.O [LEVOFLOXACIN] | Not Active | Not Active
CCn1cc(C(=O)O)c(=O)c2cc(F)c(N3CCNC(C)C3)c(F)c21 (stereo unspecified) [LOMEFLOXACIN] | Not Active | Not Active
